According to ChEMBL document CHEMBL1909046, “DrugMatrix in vitro pharmacology data”:

Experiments:
[1] = biological target: T1, Alpha-1A adrenergic receptor (Rattus norvegicus, UniProt P43140); test: DRUGMATRIX: Alpha-1A adrenergic receptor radioligand binding (ligand: prazosin); type: cell membranes, Wistar, Submaxillary gland, Membrane; conditions: Not Active = under 50% inhibition at 10 µM
T1 sequence (P43140 whole entry): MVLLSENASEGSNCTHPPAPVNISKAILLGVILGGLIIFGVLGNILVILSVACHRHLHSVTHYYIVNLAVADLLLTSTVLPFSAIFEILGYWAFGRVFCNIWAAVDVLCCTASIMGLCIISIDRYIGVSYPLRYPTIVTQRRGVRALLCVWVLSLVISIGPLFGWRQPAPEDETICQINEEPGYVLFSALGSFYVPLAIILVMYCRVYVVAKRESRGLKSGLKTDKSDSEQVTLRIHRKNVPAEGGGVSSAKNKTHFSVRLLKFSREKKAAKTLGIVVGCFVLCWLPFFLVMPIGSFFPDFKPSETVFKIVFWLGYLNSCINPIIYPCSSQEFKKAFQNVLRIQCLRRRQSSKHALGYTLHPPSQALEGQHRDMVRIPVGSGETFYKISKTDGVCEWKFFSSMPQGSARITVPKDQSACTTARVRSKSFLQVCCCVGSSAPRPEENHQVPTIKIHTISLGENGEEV

[2] = biological target: T2, Muscarinic acetylcholine receptor M2 (Homo sapiens, UniProt P08172); type: cell membranes, CHO-K1, Membrane; conditions: cho-k1; also: in other assays of this panel Not Active means under 50% inhibition at 10 µM
T2 sequence (P08172 whole entry): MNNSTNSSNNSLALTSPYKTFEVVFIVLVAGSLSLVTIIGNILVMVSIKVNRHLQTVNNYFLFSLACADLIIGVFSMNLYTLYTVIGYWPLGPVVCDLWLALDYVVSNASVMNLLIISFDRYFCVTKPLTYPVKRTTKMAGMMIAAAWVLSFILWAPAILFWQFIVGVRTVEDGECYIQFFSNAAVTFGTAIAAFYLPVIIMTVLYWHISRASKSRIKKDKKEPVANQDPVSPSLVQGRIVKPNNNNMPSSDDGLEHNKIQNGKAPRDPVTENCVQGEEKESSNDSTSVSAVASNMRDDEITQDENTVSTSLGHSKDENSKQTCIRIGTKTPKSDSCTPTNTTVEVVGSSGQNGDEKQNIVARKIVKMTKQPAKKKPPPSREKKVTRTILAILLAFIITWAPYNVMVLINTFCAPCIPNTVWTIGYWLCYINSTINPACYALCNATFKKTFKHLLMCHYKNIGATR

[3] = biological target: T3, Muscarinic acetylcholine receptor M5 (Homo sapiens, UniProt P08912); type: cell membranes, CHO-K1, Membrane; conditions: cho-k1; also: in other assays of this panel Not Active means under 50% inhibition at 10 µM
T3 sequence (P08912 whole entry): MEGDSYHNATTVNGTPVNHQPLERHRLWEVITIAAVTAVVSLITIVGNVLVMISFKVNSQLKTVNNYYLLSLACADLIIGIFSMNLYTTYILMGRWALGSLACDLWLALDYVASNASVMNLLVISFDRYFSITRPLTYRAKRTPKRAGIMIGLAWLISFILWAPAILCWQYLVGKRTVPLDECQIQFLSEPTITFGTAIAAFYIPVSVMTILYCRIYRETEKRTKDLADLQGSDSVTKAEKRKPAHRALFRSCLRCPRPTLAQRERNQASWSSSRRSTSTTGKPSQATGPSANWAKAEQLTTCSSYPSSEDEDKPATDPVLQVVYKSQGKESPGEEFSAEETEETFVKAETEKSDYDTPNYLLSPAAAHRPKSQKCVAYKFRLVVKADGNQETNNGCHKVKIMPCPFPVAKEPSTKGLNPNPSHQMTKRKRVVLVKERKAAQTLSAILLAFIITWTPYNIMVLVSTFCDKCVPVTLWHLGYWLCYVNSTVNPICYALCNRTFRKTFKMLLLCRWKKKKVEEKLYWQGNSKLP

[4] = biological target: Mitogen-activated protein kinase 1 (Homo sapiens, UniProt P28482); test: DRUGMATRIX: Protein Serine/Threonine Kinase, ERK2 enzyme inhibition (substrate: Myelin Basic Protein); design: species or system Escherichia coli; conditions: Not Active = under 50% inhibition at 10 µM
Chain of Mitogen-activated protein kinase 1 (P28482 whole entry): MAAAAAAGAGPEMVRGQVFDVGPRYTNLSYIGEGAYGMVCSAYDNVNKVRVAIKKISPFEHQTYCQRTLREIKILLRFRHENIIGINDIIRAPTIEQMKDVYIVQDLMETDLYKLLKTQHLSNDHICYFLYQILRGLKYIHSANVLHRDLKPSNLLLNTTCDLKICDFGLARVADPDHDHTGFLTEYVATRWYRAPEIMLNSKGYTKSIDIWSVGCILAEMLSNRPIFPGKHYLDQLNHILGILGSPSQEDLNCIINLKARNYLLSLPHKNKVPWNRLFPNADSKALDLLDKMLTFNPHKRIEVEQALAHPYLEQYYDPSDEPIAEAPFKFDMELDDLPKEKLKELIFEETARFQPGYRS

Cytochrome P450 1A2 = biological target: T4, Cytochrome P450 1A2 (Homo sapiens, UniProt P05177); conditions: bti-tn-5b1-4; also: in other assays of this panel Not Active means under 50% inhibition at 10 µM
T4 sequence (P05177 whole entry): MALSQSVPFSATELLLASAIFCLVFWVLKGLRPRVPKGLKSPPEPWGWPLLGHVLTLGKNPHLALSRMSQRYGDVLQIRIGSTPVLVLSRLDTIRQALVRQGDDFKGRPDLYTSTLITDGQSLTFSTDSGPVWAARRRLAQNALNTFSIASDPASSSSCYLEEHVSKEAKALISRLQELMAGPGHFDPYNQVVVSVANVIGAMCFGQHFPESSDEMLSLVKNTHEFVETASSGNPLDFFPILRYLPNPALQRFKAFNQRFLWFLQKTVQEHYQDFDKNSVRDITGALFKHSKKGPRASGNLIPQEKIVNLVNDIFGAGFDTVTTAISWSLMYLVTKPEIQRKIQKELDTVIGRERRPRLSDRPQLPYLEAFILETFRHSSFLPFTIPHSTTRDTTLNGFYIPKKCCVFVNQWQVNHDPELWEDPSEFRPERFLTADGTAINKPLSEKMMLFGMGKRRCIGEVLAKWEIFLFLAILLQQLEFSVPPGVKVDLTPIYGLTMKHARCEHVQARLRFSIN

CC(C)NC[C@H](O)COc1cccc2[nH]ccc12
Not Active: IC50 [1] | IC50 [2] | IC50 [3] | IC50 [4]

c1ccc2c(c1)cc1ccc3cccc4ccc2c1c34
Not Active: IC50 [1] | IC50 [2] | IC50 [3] | IC50 [4]

CCCCCCCCCc1ccc(O)cc1 [4-NONYLPHENOL]
Not Active: IC50 [1] | IC50 [2] | IC50 [4] | IC50 (Cytochrome P450 1A2) | Ki (Cytochrome P450 1A2)

COc1ccc2c(c1)c(CC(=O)OCC(=O)O)c(C)n2C(=O)c1ccc(Cl)cc1 [ACEMETACIN]
Not Active: IC50 [1] | IC50 [2] | IC50 [3] | IC50 [4] | IC50 (Cytochrome P450 1A2) | Ki (Cytochrome P450 1A2)

CCCSc1ccc2nc(NC(=O)OC)[nH]c2c1 [ALBENDAZOLE]
Not Active: IC50 [1] | IC50 [2] | IC50 [3] | IC50 [4] | IC50 (Cytochrome P450 1A2) | Ki (Cytochrome P450 1A2)

Cc1[nH]cnc1CN1CCc2c(c3ccccc3n2C)C1=O [ALOSETRON]
Not Active: IC50 [1] | IC50 [2] | IC50 [3] | IC50 [4]

CC1(C)S[C@@H]2[C@H](NC(=O)[C@H](N)c3ccc(O)cc3)C(=O)N2[C@H]1C(=O)O [AMOXICILLIN]
Not Active: IC50 [1] | IC50 [2] | IC50 [3] | IC50 [4]

N=C(N)NCCCCNC(=N)N.O=S(=O)(O)O [ARCAINE SULFATE]
Not Active: IC50 [1] | IC50 [2] | IC50 [3] | IC50 [4] | IC50 (Cytochrome P450 1A2) | Ki (Cytochrome P450 1A2)

CCOC(=O)c1ccc(N)cc1 [BENZOCAINE]
Not Active: IC50 [1] | IC50 [2] | IC50 [3] | IC50 [4] | IC50 (Cytochrome P450 1A2) | Ki (Cytochrome P450 1A2)

Cc1ccccc1N1CCN(CCc2nnc3n2CCCC3)CC1 [DAPIPRAZOLE]
Not Active: IC50 [2] | IC50 [3] | IC50 [4] | IC50 (Cytochrome P450 1A2) | Ki (Cytochrome P450 1A2)

CC(=O)OCC(=O)[C@@]1(OC(C)=O)[C@@H](C)C[C@H]2[C@@H]3C[C@H](F)C4=CC(=O)C=C[C@]4(C)[C@@]3(F)[C@@H](O)C[C@@]21C [DIFLORASONE DIACETATE]
Not Active: IC50 [1] | IC50 [2] | IC50 [3] | IC50 [4] | IC50 (Cytochrome P450 1A2) | Ki (Cytochrome P450 1A2)

CC[N+](CC)(CC)CCOc1cccc(OCC[N+](CC)(CC)CC)c1OCC[N+](CC)(CC)CC.[I-].[I-].[I-] [GALLAMINE TRIETHIODIDE]
Not Active: IC50 [1] | IC50 [3] | IC50 [4] | IC50 (Cytochrome P450 1A2) | Ki (Cytochrome P450 1A2)

O=P1(NCCCl)OCCCN1CCCl (stereo not given) [IFOSFAMIDE]
Not Active: IC50 [1] | IC50 [2] | IC50 [3] | IC50 [4]
